“Also recorded” adds a separate entry of the source. Like-named read-outs stand apart in the source and are kept apart here.
Key:
SM-associated symptoms = assay: On-study corticosteroid usage; format: in vivo, human
Procedure: At baseline, approximately one-third of patients overall (29 patients; 34%) were using corticosteroids. After baseline, as a result of improvement in SM-associated symptoms, 19 patients (66%) reduced their corticosteroid usage, of whom 12 (41%) patients discontinued corticosteroid use entirely, while 7 (24%) were able to reduce the dose.
Corticosteroid treatment, not exceeding doses administered during screening, was permitted; doses higher than 20 mg daily prednisone equivalent were avoided, and prolonged treatment (>14 d) with high-dose corticosteroids rendered patients ineligible for response assessment.

AdvSM symptom burden = assay: Patient-reported outcomes: AdvSM-SAF total symptom score; format: in vivo, human; conditions: C11; P = 0.002, n = 20; baseline 19.1 points (n = 40)
Excerpt: The AdvSM-SAF comprises a ten-item questionnaire completed by the patient daily, specifically designed to assess symptoms related to AdvSM and measure the impact of treatments on patient symptom improvement. […] The AdvSM-SAF assesses the severity of eight symptoms of AdvSM, including abdominal pain, nausea, vomiting, diarrhea, spots, itching, flushing and fatigue over a 24-h period on a numerical rating scale, and also measures the frequency of vomiting and diarrhea by asking patients to enter a discrete numerical value. Data were analyzed at the item level, domain level and total score level. Domain level analyses are: • Gastrointestinal symptoms score (abdominal pain, nausea, vomiting and diarrhea severity (range 0–40)) • Skin symptom score (spots, itching and flushing severity (range 0–30))
The TSS was achieved by summing all eight severity items (range 0–80).

[1] = system: mast cell burden in patients with AdvSM; assay: Changes in measures of mast cell burden (BM mast cells, serum tryptase, spleen volume); format: in vivo, human
Procedure: (§1) Other secondary endpoints included PK, DOR and changes in measures of mast cell burden (percentage of BM mast cells, serum tryptase concentration, KIT D816V VAF by ddPCR (detection limit 0.17%), and spleen and liver volumes). PROs were measured by daily completion of AdvSM-SAF (described below) for patients in part 2 as a secondary outcome[37]–[39]. Exploratory endpoints included time to response, PFS and OS.
The percentage change from baseline in spleen and liver volume as measured by central radiographic assessment using an MRI or a CT scan was summarized over time in the safety population. In addition, maximum percentage reduction was presented in waterfall plots.
(§2) Responses were assessed according to the protocol schedule. Spleen size was assessed by palpation and by imaging with calculation of volume centrally. KIT D816V VAF in the BM (or in blood if unavailable) was centrally measured using a validated ddPCR assay with a lower limit of detection of 0.17% (Bio-Rad). Other somatic mutations in BM were centrally assayed at baseline by next-generation sequencing.

[2] = system: patients with AdvSM and other myeloid malignancies; assay: 3 + 3 dose escalation: MTD, DLT and RP2D; format: in vivo
Procedure: This phase 1, open-label study comprised a dose-escalation phase (part 1) and a dose-expansion phase (part 2; Fig. 1). During dose escalation, patients received oral avapritinib at starting doses ranging from 30 to 400 mg QD in continuous 28-d treatment cycles. Dose escalation followed a 3 + 3 design (described below) until the MTD or RP2D was determined. During part 1, intra-patient dose escalation to assess dose levels not exceeding the MTD was allowed. Dose expansion was initially conducted at a starting dose of 300 mg QD; a second expansion cohort at 200 mg QD was subsequently introduced via protocol amendment. Dosing continued until patients experienced unacceptable toxicity, disease progression, death or withdrew consent.
The 3 + 3 dose-escalation design used cohorts of three to six patients. The first cohort received avapritinib at a starting dose of 30 mg daily. […] Three patients were enrolled initially in each cohort with an additional accrual of three patients if the cohort required expansion due to DLT. Once the escalation cohort was full, up to three additional patients (diagnosis of AdvSM only) could be enrolled into an enrichment cohort at a lower dose. Data from these patients were intended for further exploration of PK, pharmacodynamics and safety in patients with AdvSM.
The safety population included all enrolled patients and was used to report AEs and PROs (in those who completed the questionnaire). The dose-determining population included all patients in a cohort in part 1 who received ≥21 prescribed avapritinib doses in C1 and completed follow-up through C1, or experienced DLT. The determination of the MTD and RP2D were based on the dose-determining population. […] The AdvSM safety population was also used to report AEs and OS. […] The response-evaluable population was used to report adjudicated response rates and PFS. The PK population comprised all patients with sufficient plasma concentration–time data to reliably estimate the PK parameters of avapritinib.

[3] = Plasma pharmacokinetics, non-compartmental analysis; format: in vivo, human
Procedure: On D1 and D15 of C1, blood samples for PK analysis were collected before the dose, and 0.5, 1, 2, 4, 8 and 24 h (C1D1 only) after the dose. C2D1 pre-dose concentration was used as the C1D15 24-h concentration for PK analysis. Additional pre-dose samples were collected on D1 of C3 and C4. Avapritinib PK parameters were obtained by non-compartmental analysis of the plasma concentration data versus nominal time using Phoenix WinNonlin© (version 8.0, Certara).
Plasma concentration–time profiles across dose levels and dose versus systemic exposure (Cmax and AUC) relationships were assessed graphically. Systemic exposure parameters of interest included the arithmetic and geometric mean, Cmax and AUC, and 90% CIs.

[4] = system: KIT D816V variant allele fraction; assay: KIT D816V variant allele fraction in BM by central ddPCR; format: in vivo, human; conditions: for Complete elimination of measurable KIT D816V VAF, patients: post hoc
Procedure: as §1, §2

KIT D816V = system: KIT D816V; parameters: method as in PMID 29093181; conditions: immunoblot in a xenograft model; cited from earlier work

Compound: Cn1cc(-c2cc3c(N4CCN(c5ncc([C@@](C)(N)c6ccc(F)cc6)cn5)CC4)ncnn3c2)cn1 [avapritinib]
- Patients able to reduce the corticosteroid dose (SM-associated symptoms; 7 of 29 patients using corticosteroids at baseline): 24%
- Patients who discontinued corticosteroid use entirely (SM-associated symptoms; 12 of 29 patients using corticosteroids at baseline): 41%
- Patients who reduced their corticosteroid usage (SM-associated symptoms; 19 of 29 patients using corticosteroids at baseline): 66%
- Mean change from baseline AdvSM-SAF TSS (AdvSM symptom burden): −10.9 points
- Patients with spleen volume reduced by ≥35% ([1]; 66 patients with a baseline spleen volume assessment): 82%
- Patients with BM mast cells decreased by ≥50% ([1]; patients with AdvSM): 92%
- Patients with mast cell aggregates eliminated ([1]; patients with AdvSM): 77%
- Patients with serum tryptase reduced by ≥50% ([1]; patients with AdvSM): 99%
- Patients with serum tryptase reduced to <20 ng ml^−1 ([1]; patients with AdvSM): 74%
- Maximum tolerated dose (MTD) ([2]; doses of 30–400 mg once daily): No maximum tolerated dose (MTD) was determined; also recorded: not reached
- Recommended phase 2 dose (RP2D) ([2]; human, in vivo, 28 d): 200 mg
- Recommended phase 2 dose (RP2D) initially selected for part 2 ([2]; human, in vivo, 28 d): 300 mg QD
- Patients with dose-limiting toxicity (DLT) ([2]; in vivo): one
- Time at which steady state was reached ([3]; QD dosing): ≤ 15 days
- half-life ([3]; human, plasma, oral, Cycle 1 Day 15, read-out: Steady state t½): > 20 h
- half-life ([3]; human, plasma, oral, range across doses, read-out: Mean plasma elimination half-life): 19.8 to 38.3 h
- AUC ([3]; human, plasma, oral, 200 mg QD, C1 D15, CV 54.2%, n = 16, read-out: Steady-state geometric mean AUC0-τ): 7340 ng·h/mL
- Cmax ([3]; human, plasma, oral, 200 mg QD, C1 D15, CV 62.2%, n = 18, read-out: Steady-state geometric mean maximum plasma concentration (Cmax)): 433 ng/mL
- Tmax ([3]; human, plasma, single oral doses of 30 to 400 mg, read-out: Time to maximum plasma concentration (Tmax)): 2 to 4 h
- Patients with KIT D816V VAF in BM reduced from baseline by ≥50% ([4]; patients with AdvSM, ddPCR): 80%
- Patients in whom KIT D816V VAF in BM became undetectable ([4]; patients with AdvSM, ddPCR limit of detection 0.17%): 30%
- Complete elimination of measurable KIT D816V VAF, patients ([4]; best response CR (n = 8)): 63%
- Complete elimination of measurable KIT D816V VAF, patients ([4]; best response CRh (n = 8)): 50%
- Complete elimination of measurable KIT D816V VAF, patients ([4]; best response PR (n = 13)): 23%
- Complete elimination of measurable KIT D816V VAF, patients ([4]; clinical improvement (n = 2) or stable disease (n = 11)): 15%
- In vivo IC90 for inhibition of KIT D816V in xenograft model (KIT D816V): 0.189 µg/mL

Reference: paper PMC8674134, “Safety and efficacy of avapritinib in advanced systemic mastocytosis: the phase 1 EXPLORER trial” (Nature Medicine, 2021)
